Data set [1] deals with T1, Solute carrier organic anion transporter family member 1B3 (Homo sapiens, UniProt Q9NPD5).
T1 sequence (Q9NPD5 whole entry): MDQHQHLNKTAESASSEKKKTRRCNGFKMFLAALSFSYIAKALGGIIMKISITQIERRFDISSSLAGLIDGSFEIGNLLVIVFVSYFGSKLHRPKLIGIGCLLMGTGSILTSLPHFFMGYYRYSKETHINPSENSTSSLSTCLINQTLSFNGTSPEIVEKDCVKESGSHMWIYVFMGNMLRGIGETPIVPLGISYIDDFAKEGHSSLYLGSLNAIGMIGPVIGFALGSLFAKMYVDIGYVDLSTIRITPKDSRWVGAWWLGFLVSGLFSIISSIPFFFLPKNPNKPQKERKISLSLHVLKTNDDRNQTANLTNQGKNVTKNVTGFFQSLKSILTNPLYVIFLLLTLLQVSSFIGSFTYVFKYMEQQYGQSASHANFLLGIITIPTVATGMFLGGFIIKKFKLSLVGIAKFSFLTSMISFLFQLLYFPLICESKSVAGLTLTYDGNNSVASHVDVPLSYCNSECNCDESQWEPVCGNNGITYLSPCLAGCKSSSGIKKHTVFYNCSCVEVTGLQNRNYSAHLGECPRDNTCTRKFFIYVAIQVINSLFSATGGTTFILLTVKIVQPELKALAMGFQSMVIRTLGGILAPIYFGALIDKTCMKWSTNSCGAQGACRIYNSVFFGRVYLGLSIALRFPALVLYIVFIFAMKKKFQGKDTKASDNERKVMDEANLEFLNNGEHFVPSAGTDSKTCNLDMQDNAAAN
To be noted: chinese hamster, cho, 10 µM.

The target in data set [2] is T2, Solute carrier organic anion transporter family member 1B1 (Homo sapiens, UniProt Q9Y6L6).
T2 sequence (Q9Y6L6 whole entry): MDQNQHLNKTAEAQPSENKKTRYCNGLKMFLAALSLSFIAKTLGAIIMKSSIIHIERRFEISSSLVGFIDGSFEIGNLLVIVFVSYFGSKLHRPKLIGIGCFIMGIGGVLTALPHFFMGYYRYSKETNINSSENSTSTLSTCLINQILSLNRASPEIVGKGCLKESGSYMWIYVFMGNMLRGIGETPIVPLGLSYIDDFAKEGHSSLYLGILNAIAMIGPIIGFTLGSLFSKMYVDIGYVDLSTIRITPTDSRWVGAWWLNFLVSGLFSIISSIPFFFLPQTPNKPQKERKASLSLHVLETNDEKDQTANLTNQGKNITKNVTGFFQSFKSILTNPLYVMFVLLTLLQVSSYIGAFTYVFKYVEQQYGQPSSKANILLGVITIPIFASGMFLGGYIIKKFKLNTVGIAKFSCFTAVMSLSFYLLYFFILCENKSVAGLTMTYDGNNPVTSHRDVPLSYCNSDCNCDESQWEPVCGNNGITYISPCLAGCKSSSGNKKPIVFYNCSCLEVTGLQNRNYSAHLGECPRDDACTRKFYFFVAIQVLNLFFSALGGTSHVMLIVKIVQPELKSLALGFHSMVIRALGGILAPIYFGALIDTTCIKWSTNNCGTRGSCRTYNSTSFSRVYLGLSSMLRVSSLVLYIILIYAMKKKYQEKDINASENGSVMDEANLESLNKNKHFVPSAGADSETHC
The settings on record: chinese hamster, cho, 10 µM.

Take `O=c1c(O)c(-c2ccc(O)c(O)c2)oc2cc(O)ccc12` [FISETIN]: the residual activity was determined as 108.5% in data set [1] and 56.32% in data set [2].
As to `COC(=O)C[C@H]1C(C)(C)[C@@H](OC(C)=O)[C@@H]2CC3=C4CC(=O)O[C@@H](c5ccoc5)[C@]4(C)CC[C@@H]3[C@@]1(C)C2=O` [FISSINOLIDE], the residual activity is reported as 51.76% in data set [1] and 27.44% in data set [2].
On to `O=C1CC(c2ccccc2)Oc2ccccc21` (stereo not given) [FLAVANONE], for which the residual activity in data set [1] turned out to be 79.68%; in data set [2] it was 76.99%.
In the case of `COc1cc(O)c(C(=O)/C=C/c2ccccc2)c(OC)c1` [FLAVOKAWAIN B], the figures for the residual activity in data set [1] and in data set [2] were 125.2% and 141.4%, respectively.
Regarding `O=c1c(O)c(-c2ccccc2)oc2ccccc12` [FLAVONOL], the residual activity was 102.6% in data set [1] and 133.5% in data set [2].
`CCC(=O)c1c(O)cc(O)cc1O` [FLOPROPIONE]: the results for the residual activity in data set [1] and in data set [2] were 107.4% and 69.54%, respectively.
Consider `O=c1[nH]c(=O)n([C@H]2C[C@H](O)[C@@H](CO)O2)cc1F` [FLOXURIDINE], for which the results for the residual activity in data set [1] and in data set [2] were 109.2% and 116.3%, respectively.
`OC(Cn1cncn1)(Cn1cncn1)c1ccc(F)cc1F` [FLUCONAZOLE]: the residual activity in data set [1] is on record as 106.5%; in data set [2], 86.64%.
The corresponding values for `CC(=O)OCC(=O)[C@@]1(O)CC[C@H]2[C@@H]3CCC4=CC(=O)CC[C@]4(C)[C@@]3(F)[C@@H](O)C[C@@]21C` [FLUDROCORTISONE ACETATE] are 71.2% and 36.29%.
For `O=C(O)c1ccccc1Nc1cccc(C(F)(F)F)c1` [FLUFENAMIC ACID], the values for the residual activity in data set [1] and in data set [2] were 64.03% and 211.3%, respectively.
Turning to `CC1CCc2cc(F)cc3c(=O)c(C(=O)O)cn1c23` (stereo not given) [FLUMEQUINE], the residual activity in data set [1] is reported as 107%; in data set [2], 74.99%.
In the case of `C[C@@H]1C[C@H]2[C@@H]3C[C@H](F)C4=CC(=O)C=C[C@]4(C)[C@@]3(F)[C@@H](O)C[C@]2(C)[C@@]1(O)C(=O)COC(=O)C(C)(C)C` [FLUMETHASONE PIVALATE], the residual activity amounted to 107.9% in data set [1] and 98.41% in data set [2].
For `C[C@@H]1C[C@H]2[C@@H]3C[C@H](F)C4=CC(=O)C=C[C@]4(C)[C@@]3(F)[C@@H](O)C[C@]2(C)[C@@]1(O)C(=O)CO` [FLUMETHASONE], the residual activity in data set [1] was 135.8%; in data set [2] it was 84.89%.
In the case of `Cl.Cl.Fc1ccc(C(c2ccc(F)cc2)N2CCN(C/C=C/c3ccccc3)CC2)cc1` [FLUNARIZINE HYDROCHLORIDE], the residual activity in data set [1] is given as 102.7%; in data set [2], 117.4%.
With `CC1(C)O[C@@H]2C[C@H]3[C@@H]4C[C@H](F)C5=CC(=O)C=C[C@]5(C)[C@H]4[C@@H](O)C[C@]3(C)[C@]2(C(=O)CO)O1` [FLUNISOLIDE], the figures for the residual activity in data set [1] and in data set [2] were 77.49% and 55.07%, respectively.
`CC(=O)[C@@]1(O)CC[C@H]2[C@@H]3C[C@H](C)C4=CC(=O)C=C[C@]4(C)[C@@]3(F)[C@@H](O)C[C@@]21C` [FLUOROMETHOLONE]: the residual activity in data set [1] is reported as 105.7%; in data set [2] it was 85.71%.
As for `O=c1[nH]cc(F)c(=O)[nH]1` [FLUOROURACIL], the residual activity in data set [1] was 91.17%; in data set [2], 86.84%.
In the case of `CNCCC(Oc1ccc(C(F)(F)F)cc1)c1ccccc1` (stereo not given) [FLUOXETINE], the residual activity in data set [1] is recorded as 77.22%; in data set [2] it was 55.32%.
Consider `CC1(C)O[C@@H]2C[C@H]3[C@@H]4C[C@H](F)C5=CC(=O)CC[C@]5(C)[C@H]4[C@@H](O)C[C@]3(C)[C@]2(C(=O)CO)O1` [FLURANDRENOLIDE], for which the residual activity in data set [1] is given as 99.16%; in data set [2] it was 129.2%.
For `CC(C(=O)O)c1ccc(-c2ccccc2)c(F)c1` (stereo not given) [FLURBIPROFEN], the figures for the residual activity in data set [1] and in data set [2] were 98.28% and 227%, respectively.
Take `CC(C)C(=O)Nc1ccc([N+](=O)[O-])c(C(F)(F)F)c1` [FLUTAMIDE]: the residual activity in data set [1] was determined as 133.6%; in data set [2] it was 130.9%.
With `Nc1nc2ncc(CNc3ccc(C(=O)N[C@@H](CCC(=O)O)C(=O)O)cc3)nc2c(=O)[nH]1` [FOLIC ACID], the residual activity in data set [1] amounted to 109.7%; in data set [2], 98.4%.
With `C[C@]12CCC(=O)C(O)=C1CC[C@@H]1[C@@H]2CC[C@]2(C)C(=O)CC[C@@H]12` [FORMESTANE], the residual activity in data set [1] is listed as 106.1%; in data set [2] it was 81.74%.
In the case of `COc1ccc(-c2coc3cc(O)ccc3c2=O)cc1` [FORMONONETIN], the figures for the residual activity in data set [1] and in data set [2] were 114.7% and 169.8%, respectively.
With `O=C([O-])P(=O)([O-])[O-].[Na+].[Na+].[Na+]` [FOSCARNET SODIUM], the results for the residual activity in data set [1] and in data set [2] were 110.8% and 113%, respectively.
Take `O=C(O)c1ccccc1OP(=O)(O)O` [FOSFOSAL]: the residual activity in data set [1] was found to be 92.75%; in data set [2], 68.68%.
Consider `COc1cc2ccc(=O)oc2c(O)c1O` [FRAXETIN], for which the residual activity in data set [1] was 106.2%; in data set [2], 68.87%.
The corresponding values for `COc1cc2ccc(=O)oc2c(OC)c1OC` [FRAXIDIN METHYL ETHER] are 92.79% and 92.39%.
As for `C[C@H]1C(=O)CC[C@@H]2[C@]1(C)CC[C@H]1[C@@]2(C)CC[C@@]2(C)[C@@H]3CC(C)(C)CC[C@]3(C)CC[C@]12C` [FRIEDELINE], the figures for the residual activity in data set [1] and in data set [2] were 90.31% and 112%, respectively.
As to `O=C1OCCN1/N=C/c1ccc([N+](=O)[O-])o1` [FURAZOLIDONE], the results for the residual activity in data set [1] and in data set [2] were 94.52% and 91.17%, respectively.
As to `NS(=O)(=O)c1cc(C(=O)O)c(NCc2ccco2)cc1Cl` [FUROSEMIDE], the figures for the residual activity in data set [1] and in data set [2] were 90.27% and 86.58%, respectively.
Taken in the same sequence, the figures for `CC(=O)O[C@H]1C[C@@]2(C)[C@@H](C[C@@H](O)[C@H]3[C@@]4(C)CC[C@@H](O)[C@@H](C)[C@@H]4CC[C@@]32C)/C1=C(\CCC=C(C)C)C(=O)O` [FUSIDIC ACID] were 58.34% and 39.52%.
In the case of `CC[N+](CC)(CC)CCOc1cccc(OCC[N+](CC)(CC)CC)c1OCC[N+](CC)(CC)CC.[I-].[I-].[I-]` [GALLAMINE TRIETHIODIDE], the figures for the residual activity in data set [1] and in data set [2] were 79.25% and 91.38%, respectively.
As to `O=C(O)c1cc(O)c(O)c(O)c1` [GALLIC ACID], the residual activity is 91.35% in data set [1] and 67.94% in data set [2].
For `CC(C)=CCC[C@]1(C)C=Cc2c(O)c3c(c(CC=C(C)C)c2O1)O[C@]12C(=C[C@@H]4C[C@H]1C(C)(C)O[C@@]2(C/C=C(/C)C(=O)O)C4=O)C3=O` [GAMBOGIC ACID], the residual activity in data set [1] is given as 65.8%; in data set [2], 75.57%.
Turning to `NCC(O)CC(=O)O` (stereo not drawn) [GAMMA-AMINO-BETA-HYDROXYBUTYRIC ACID], the residual activity is 106.5% in data set [1] and 120.5% in data set [2].
Turning to `NCCCC(=O)O` [GAMMA-AMINOBUTYRIC ACID], the residual activity in data set [1] came to 81.28%; in data set [2] it was 56.63%.
Consider `COC(=O)c1c(OC)cc2c(c1C)Oc1c(Cl)c(OC(C)=O)c(Cl)c(C)c1C(=O)O2` [GANGLEOIDIN ACETATE], for which the residual activity in data set [1] was found to be 54.62%; in data set [2], 34.6%.
On to `COc1c(N2CCNC(C)C2)c(F)cc2c(=O)c(C(=O)O)cn(C3CC3)c12` (stereo not given) [GATIFLOXACIN], for which the residual activity in data set [1] worked out at 96.61%; in data set [2], 121.9%.
In the case of `CC(=O)O[C@@H]1C[C@H]2C(C)(C)C(=O)C=C[C@]2(C)[C@H]2CC[C@@]3(C)[C@H](c4ccoc4)OC(=O)[C@H]4O[C@]43[C@@]21C` [GEDUNIN], the residual activity in data set [1] is on record as 105.4%; in data set [2] it was 65.45%.

These data come from ChEMBL document CHEMBL3039007, “Structure-based identification of OATP1B1/3 inhibitors” (Mol Pharmacol, 2013).
